From ChEMBL document CHEMBL1201862, “PubChem BioAssay data set” (2004)
Active and inactive are the calls of the source.

Assays:
[1] = Luminescent dose response cell-based high throughput screening assay for inhibitors of the Janus kinase 2 mutant JAK2V617F. [Related pubchem assays: 1446 (Primary screen.), 1521 (Confirmation assay.), 1486 (Counter screen.)]; format: functional
[2] = inhibitors of firefly luciferase expression or activity, dose response, H4 neuroglioma cells, luminescence (AID 1990); format: functional, cell-based
[3] = target: E3 ubiquitin-protein ligase Mdm2 (Homo sapiens, UniProt Q00987); assay: enhancers of MDM2-luciferase reporter signal, concentration-effect titration, project on inhibitors of MDM2 ubiquitin ligase, cellular assay, luminescent readout, 384-well plate format (AID 1394); format: functional;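 note: MDM2 E3 inhibitors raise luminescence so EC50 is for signal enhancement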
[4] = system: HeLa; assay: Cytotoxicity counterscreen assay for transcriptional activators of heat shock protein 70 (Hsp70). [Related pubchem assays: 1203, 1252 ]; format: functional; conditions: Homo sapiens;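 note: cells exposed to compound for 16 hours before readout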
[5] = system: BJ; assay: cytotoxicity toward BJ-TERT fibroblasts, dose response, cell-based, RAS-independent, luminescence (AID 1933); format: functional; conditions: Homo sapiens
[6] = Luminescence Cell-Based Dose Response HTS to Identify Inhibitors of 5'UTR Stem-Loop Driven Prion Protein mRNA Translation in H4 Neuroglioblastoma Cells. [Related pubchem assays: 1827 (Project Summary), 1813 (Primary HTS)]; format: functional
[7] = inhibitors of SNCA 5'UTR-driven reporter translation, confirmation, H4 neuroglioma cells, luminescence (AID 1988); format: functional, cell-based
[8] = system: BJ; assay: cells; format: functional, cell-based; conditions: Homo sapiens
[9] = system: BJ; assay: cytotoxicity toward BJ-TERT-LT-ST fibroblasts, dose response, cell-based, RAS-independent, luminescence (AID 1935); format: functional; conditions: Homo sapiens;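 note: BJ fibroblasts immortalized with TERT plus LT and ST oncogenes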
[10] = cytotoxicity toward DRD oncogenic fibroblasts, dose response, cell-based, non-viral oncogenic, luminescence (AID 1934); format: functional; conditions: Homo sapiens
[11] = target: E3 ubiquitin-protein ligase Mdm2/Protein Mdm4 (Homo sapiens, UniProt O15151+Q00987); assay: Mdm2-MdmX interaction inhibitors, dose response, luminescence detection (AID 504593); format: functional
[12] = cytotoxicity in HEK-293T cells, dose response, cytotoxicity control for TCR NF-kB inhibitor project, luminescence, T-cell screen hits (AID 489026); format: functional, cell-based;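 note: cells exposed to compound about 14 hours before the viability readout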
[13] = system: BJ; assay: cytotoxicity toward Ras-transformed BJeLR fibroblasts, dose response, cell-based, alamar blue fluorescence, cherrypicked samples (AID 2631); format: functional; conditions: Homo sapiens;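 note: confirmatory dose-response assay in RAS-dependent BJ fibroblasts engineered with TERT, LT and ST, with cytotoxicity read by fluorescence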
[14] = system: INS1; assay: beta cell apoptosis inhibitors, cytokine rescue, dose response, luminescence, retest (AID 449756); format: functional, cell-based; conditions: Rattus norvegicus;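 note: cell death triggered by IL-1 beta plus TNF-alpha plus IFN-gamma mixture; protective hits raise ATP signal compared with cytokine alone wells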
[15] = target: T1, Hepatocyte nuclear factor 4-alpha (Homo sapiens, UniProt P41235); format: functional, cell-based;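 note: biochemical luminescence-based dose-response counterscreen measuring inhibition of HNF4 dimerization, run alongside a screen for blockers of ABHD5–perilipin-5 interaction; split luciferase complementation of HNF4 fusion proteins in cell lysate measuring dimerization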
T1 sequence (P41235 whole entry): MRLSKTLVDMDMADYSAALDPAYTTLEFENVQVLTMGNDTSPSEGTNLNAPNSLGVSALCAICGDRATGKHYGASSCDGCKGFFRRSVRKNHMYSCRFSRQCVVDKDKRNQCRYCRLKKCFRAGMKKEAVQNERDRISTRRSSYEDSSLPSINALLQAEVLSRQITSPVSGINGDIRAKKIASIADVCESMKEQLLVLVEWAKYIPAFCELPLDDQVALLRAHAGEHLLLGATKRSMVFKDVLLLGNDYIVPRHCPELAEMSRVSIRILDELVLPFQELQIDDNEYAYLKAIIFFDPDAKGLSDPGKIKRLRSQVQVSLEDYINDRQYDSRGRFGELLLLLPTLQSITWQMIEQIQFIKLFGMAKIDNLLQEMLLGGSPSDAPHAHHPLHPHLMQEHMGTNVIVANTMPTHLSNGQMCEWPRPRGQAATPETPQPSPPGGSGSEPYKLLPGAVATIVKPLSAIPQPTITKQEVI

[16] = target: T2, Tyrosine-protein phosphatase non-receptor type 7 (Homo sapiens, UniProt P35236); format: functional
T2 sequence (P35236 whole entry): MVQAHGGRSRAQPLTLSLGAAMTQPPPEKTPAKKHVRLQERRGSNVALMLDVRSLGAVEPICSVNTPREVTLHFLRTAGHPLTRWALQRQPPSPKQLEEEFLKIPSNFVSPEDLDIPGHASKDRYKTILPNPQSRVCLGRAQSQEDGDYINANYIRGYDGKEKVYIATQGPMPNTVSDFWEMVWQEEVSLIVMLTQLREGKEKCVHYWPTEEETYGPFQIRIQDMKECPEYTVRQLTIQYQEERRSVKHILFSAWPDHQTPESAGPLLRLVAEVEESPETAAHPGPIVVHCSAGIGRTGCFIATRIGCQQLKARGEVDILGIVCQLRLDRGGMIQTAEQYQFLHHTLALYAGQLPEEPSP

[17] = target: Glyceraldehyde-3-phosphate dehydrogenase (Homo sapiens, UniProt P04406)
[18] = target: T3, Dual specificity protein phosphatase 6 (Rattus norvegicus, UniProt Q64346)
T3 sequence (Q64346 whole entry): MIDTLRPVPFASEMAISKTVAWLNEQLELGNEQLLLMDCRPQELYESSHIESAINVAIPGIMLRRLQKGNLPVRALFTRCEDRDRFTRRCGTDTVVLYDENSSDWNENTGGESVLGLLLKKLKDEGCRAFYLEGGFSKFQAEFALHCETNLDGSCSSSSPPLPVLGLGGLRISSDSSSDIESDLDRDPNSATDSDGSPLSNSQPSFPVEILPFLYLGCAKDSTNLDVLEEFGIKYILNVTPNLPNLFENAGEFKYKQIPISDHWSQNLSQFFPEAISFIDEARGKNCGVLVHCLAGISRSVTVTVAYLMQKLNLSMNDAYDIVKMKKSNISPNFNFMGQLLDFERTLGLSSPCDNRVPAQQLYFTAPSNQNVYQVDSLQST

[19] = target: T4, Short transient receptor potential channel 4 (Mus musculus, UniProt Q9QUQ5); assay: mouse TRPC4 channel inhibitors, dose response, cell-based, HEK293 TRPC4/mu-opioid, Fluo-4 calcium (AID 434942); format: functional;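 note: potency of inhibitors blocking the TRPC4 calcium response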
T4 sequence (Q9QUQ5 whole entry): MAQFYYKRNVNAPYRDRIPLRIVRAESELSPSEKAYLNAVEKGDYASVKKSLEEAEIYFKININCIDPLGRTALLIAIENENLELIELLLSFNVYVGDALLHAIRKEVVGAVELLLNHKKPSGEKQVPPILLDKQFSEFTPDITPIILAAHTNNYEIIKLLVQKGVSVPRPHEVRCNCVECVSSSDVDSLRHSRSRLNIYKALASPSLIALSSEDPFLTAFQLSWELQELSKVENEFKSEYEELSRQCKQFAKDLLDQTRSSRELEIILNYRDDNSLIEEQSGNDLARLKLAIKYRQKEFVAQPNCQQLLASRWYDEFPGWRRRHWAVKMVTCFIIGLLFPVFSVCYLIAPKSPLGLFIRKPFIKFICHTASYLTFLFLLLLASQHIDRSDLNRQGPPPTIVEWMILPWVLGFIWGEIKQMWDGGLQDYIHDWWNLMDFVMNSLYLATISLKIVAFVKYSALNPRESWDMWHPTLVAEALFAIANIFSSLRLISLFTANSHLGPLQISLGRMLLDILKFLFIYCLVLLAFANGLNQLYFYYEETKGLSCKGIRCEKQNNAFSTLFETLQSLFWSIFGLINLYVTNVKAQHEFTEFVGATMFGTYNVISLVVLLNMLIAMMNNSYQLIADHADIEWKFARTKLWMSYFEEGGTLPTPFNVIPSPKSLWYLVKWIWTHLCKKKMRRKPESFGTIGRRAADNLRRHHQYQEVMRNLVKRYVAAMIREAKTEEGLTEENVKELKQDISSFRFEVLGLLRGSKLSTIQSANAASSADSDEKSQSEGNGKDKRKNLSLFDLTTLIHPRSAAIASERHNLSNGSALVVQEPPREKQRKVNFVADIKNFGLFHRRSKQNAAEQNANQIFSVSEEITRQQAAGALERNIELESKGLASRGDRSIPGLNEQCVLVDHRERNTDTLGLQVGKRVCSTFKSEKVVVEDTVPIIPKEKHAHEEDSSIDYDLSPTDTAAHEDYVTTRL

[20] = target: T5, Dual specificity protein phosphatase 3 (Homo sapiens, UniProt P51452); assay: SAR VHR1 Fluorescent Assay for In Vitro dose response studies. [Related pubchem assays (depositor defined):AID1654, AID1661, AID1878, AID1992, AID2004, AID2070, AID2085]; format: functional
[21] = target: T5, Dual specificity protein phosphatase 3; assay: MOA VHR1 Fluorescent secondary assay for identification of redox-state modulating compounds. [Related pubchem assays (depositor defined):AID1654, AID1661, AID1878, AID1957]
[22] = target: T2, Tyrosine-protein phosphatase non-receptor type 7; assay: redox-dependent HePTP inhibition, mechanism study, biochemical, fluorescence (AID 2068); format: functional
[23] = target: T4, Short transient receptor potential channel 4; assay: mouse TRPC4 channel activators, dose response, cell-based, HEK293 TRPC4/mu-opioid, Fluo-4 calcium (AID 434937); format: functional
[24] = target: T3, Dual specificity protein phosphatase 6; format: functional
[25] = target: Integrin alpha-L (Mus musculus, UniProt P24063); assay: modulators of CD8 T cell-vesicle binding, dose response, powder samples, mouse 2C CD8+ cells (AID 504565); format: functional
[26] = target: Alkaline phosphatase, placental type (Homo sapiens, UniProt P05187); assay: PLAP enzyme inhibitors, confirmation, biochemical, luminescence (AID 1512); format: functional
[27] = target: T6, Alkaline phosphatase, tissue-nonspecific isozyme (Homo sapiens, UniProt P05186); assay: human TNAP enzyme inhibitors, SAR follow-up, biochemical, luminescent, dose response (AID 1056)
T6 sequence (P05186 whole entry): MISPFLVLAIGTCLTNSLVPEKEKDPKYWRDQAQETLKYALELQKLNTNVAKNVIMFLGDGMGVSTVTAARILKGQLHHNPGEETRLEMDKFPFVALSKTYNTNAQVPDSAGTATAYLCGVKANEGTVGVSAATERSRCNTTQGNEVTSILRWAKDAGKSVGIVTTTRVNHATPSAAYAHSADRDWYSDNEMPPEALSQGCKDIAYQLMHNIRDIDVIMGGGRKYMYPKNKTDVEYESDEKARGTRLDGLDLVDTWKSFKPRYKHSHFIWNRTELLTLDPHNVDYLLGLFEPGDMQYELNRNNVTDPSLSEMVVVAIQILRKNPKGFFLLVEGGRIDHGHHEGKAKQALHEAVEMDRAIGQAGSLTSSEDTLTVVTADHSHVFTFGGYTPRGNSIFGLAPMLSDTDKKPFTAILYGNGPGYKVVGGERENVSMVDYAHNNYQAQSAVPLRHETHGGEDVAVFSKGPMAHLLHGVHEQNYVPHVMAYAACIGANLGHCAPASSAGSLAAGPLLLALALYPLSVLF

[28] = target: T2, Tyrosine-protein phosphatase non-receptor type 7; assay: SAR analysis of chemical inhibitors of HePTP using a Fluorescent assay - Set 2. [Related pubchem assays (depositor defined):AID1059, AID1077, AID1661, AID2085, AID521]; format: functional
[29] = target: T5, Dual specificity protein phosphatase 3; assay: SAR VHR1 Fluorescent Assay for In Vitro dose response studies Set 2. [Related pubchem assays (depositor defined):AID1654, AID1661, AID1878]; format: functional
[30] = target: Hexokinase (Trypanosoma brucei, UniProt Q38C41); assay: Confirmation assay for inhibitors of Trypanosoma brucei hexokinase 1-Analogue-first series. [Related pubchem assays (depositor defined):AID1430, AID1632, AID2516, AID2560, AID2579, AID2600, AID449725, AID492951]; format: functional
[31] = target: T7, Voltage-gated N-type calcium channel alpha-1B subunit/Amyloid beta A4 precursor protein-binding family A member 1 (Homo sapiens, UniProt Q00975+Q02410); format: protein assay
[32] = target: T7, Voltage-gated N-type calcium channel alpha-1B subunit/Amyloid beta A4 precursor protein-binding family A member 1; format: protein assay; remark: listed apart in the source

T5 sequence (P51452 whole entry): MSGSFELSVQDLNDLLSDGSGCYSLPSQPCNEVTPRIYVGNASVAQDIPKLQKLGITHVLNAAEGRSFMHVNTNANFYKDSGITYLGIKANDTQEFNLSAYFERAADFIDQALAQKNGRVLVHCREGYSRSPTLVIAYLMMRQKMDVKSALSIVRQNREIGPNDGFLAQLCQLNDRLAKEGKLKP
T7 sequence (Q00975 whole entry): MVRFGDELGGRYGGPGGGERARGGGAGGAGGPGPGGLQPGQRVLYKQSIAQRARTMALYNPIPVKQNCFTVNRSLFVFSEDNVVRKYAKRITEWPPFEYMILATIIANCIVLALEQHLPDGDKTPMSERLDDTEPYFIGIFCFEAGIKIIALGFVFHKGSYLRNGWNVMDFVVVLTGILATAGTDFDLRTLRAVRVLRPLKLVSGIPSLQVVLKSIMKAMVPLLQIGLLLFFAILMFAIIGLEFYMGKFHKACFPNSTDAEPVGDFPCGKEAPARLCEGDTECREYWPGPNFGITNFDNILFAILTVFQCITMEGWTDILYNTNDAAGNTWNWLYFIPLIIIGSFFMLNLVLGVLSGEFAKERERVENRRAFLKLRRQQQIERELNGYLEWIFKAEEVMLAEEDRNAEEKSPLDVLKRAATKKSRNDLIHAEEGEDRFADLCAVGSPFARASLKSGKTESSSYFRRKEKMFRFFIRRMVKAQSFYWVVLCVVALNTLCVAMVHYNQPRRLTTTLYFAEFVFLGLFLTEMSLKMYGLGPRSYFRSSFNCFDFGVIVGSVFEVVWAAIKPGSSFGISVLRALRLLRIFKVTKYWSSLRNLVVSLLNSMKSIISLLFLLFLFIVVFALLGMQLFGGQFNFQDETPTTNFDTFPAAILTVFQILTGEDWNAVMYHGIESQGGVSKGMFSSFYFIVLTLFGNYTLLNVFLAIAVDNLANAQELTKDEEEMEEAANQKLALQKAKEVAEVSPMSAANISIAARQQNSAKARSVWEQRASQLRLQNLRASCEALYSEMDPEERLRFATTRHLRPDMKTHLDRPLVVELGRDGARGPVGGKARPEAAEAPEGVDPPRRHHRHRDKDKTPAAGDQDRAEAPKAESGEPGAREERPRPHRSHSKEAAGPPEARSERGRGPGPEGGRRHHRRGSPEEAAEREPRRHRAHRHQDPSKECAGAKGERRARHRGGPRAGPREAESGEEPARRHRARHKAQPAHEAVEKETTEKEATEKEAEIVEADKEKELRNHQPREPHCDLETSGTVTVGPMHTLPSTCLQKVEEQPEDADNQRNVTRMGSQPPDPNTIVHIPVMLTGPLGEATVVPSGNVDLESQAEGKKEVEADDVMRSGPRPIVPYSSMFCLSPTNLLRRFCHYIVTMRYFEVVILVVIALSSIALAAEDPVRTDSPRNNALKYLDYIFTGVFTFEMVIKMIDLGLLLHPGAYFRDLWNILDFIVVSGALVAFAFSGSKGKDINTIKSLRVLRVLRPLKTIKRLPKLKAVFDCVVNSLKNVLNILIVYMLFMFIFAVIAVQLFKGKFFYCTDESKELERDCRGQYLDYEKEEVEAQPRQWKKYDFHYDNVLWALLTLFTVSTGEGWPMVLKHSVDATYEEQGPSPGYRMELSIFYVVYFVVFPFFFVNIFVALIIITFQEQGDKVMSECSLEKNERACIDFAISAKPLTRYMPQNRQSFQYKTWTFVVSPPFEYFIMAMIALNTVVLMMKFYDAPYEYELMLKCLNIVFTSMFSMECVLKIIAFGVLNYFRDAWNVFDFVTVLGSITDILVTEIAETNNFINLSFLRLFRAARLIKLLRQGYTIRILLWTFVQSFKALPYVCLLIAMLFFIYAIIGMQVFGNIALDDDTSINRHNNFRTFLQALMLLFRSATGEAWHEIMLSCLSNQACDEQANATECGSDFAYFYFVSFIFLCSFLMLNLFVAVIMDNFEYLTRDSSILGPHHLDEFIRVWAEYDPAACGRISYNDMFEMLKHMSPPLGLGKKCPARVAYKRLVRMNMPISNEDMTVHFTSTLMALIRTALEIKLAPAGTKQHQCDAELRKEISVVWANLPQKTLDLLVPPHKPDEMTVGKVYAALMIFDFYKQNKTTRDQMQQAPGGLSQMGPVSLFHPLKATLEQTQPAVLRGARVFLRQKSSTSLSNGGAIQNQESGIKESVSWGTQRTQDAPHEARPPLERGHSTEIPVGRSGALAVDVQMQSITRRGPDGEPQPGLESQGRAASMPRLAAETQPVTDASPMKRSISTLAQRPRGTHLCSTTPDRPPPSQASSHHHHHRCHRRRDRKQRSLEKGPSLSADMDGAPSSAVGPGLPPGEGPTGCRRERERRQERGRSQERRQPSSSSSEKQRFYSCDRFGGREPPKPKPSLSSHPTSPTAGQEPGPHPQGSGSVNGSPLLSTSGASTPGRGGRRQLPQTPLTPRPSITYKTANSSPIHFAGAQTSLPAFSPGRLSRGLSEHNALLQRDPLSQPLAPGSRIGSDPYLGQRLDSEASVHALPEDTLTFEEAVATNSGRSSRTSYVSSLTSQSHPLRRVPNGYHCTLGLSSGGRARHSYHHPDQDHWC
T7 sequence (Q02410 whole entry): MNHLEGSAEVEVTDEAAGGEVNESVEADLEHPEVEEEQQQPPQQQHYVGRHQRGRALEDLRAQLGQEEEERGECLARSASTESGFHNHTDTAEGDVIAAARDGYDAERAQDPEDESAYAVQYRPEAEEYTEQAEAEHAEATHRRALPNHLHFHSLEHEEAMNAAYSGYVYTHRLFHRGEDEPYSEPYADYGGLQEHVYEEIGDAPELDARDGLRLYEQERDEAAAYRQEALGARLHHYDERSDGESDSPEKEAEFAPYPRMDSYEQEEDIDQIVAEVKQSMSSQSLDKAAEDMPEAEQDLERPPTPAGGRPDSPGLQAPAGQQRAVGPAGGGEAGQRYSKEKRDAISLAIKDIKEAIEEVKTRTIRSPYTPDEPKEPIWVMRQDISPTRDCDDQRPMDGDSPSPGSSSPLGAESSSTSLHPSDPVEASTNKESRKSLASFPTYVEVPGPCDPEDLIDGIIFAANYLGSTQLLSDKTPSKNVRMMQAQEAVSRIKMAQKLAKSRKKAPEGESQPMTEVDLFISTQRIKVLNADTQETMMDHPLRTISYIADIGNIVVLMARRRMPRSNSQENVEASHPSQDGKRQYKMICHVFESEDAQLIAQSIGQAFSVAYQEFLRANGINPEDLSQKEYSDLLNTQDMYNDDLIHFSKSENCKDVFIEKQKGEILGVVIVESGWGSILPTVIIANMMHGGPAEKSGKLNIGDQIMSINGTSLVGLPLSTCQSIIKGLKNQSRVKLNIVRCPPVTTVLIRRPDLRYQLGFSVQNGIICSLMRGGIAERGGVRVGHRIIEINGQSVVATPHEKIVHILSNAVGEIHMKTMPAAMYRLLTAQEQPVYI
Alkaline phosphatase, placental type, sequence (P05187 whole entry): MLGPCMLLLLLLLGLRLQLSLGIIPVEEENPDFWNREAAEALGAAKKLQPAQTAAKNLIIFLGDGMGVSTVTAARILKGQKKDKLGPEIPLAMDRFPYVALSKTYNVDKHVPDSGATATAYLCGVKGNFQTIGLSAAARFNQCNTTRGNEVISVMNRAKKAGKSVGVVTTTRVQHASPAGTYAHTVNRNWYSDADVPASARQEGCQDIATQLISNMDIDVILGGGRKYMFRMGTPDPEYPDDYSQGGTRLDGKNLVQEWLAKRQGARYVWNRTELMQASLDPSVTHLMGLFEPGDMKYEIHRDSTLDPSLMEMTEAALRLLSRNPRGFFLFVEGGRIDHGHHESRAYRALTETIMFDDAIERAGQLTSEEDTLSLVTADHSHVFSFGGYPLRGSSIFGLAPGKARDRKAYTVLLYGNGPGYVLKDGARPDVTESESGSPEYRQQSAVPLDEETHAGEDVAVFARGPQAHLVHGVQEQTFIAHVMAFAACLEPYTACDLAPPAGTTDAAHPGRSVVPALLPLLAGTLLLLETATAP
Integrin alpha-L, sequence (P24063 whole entry): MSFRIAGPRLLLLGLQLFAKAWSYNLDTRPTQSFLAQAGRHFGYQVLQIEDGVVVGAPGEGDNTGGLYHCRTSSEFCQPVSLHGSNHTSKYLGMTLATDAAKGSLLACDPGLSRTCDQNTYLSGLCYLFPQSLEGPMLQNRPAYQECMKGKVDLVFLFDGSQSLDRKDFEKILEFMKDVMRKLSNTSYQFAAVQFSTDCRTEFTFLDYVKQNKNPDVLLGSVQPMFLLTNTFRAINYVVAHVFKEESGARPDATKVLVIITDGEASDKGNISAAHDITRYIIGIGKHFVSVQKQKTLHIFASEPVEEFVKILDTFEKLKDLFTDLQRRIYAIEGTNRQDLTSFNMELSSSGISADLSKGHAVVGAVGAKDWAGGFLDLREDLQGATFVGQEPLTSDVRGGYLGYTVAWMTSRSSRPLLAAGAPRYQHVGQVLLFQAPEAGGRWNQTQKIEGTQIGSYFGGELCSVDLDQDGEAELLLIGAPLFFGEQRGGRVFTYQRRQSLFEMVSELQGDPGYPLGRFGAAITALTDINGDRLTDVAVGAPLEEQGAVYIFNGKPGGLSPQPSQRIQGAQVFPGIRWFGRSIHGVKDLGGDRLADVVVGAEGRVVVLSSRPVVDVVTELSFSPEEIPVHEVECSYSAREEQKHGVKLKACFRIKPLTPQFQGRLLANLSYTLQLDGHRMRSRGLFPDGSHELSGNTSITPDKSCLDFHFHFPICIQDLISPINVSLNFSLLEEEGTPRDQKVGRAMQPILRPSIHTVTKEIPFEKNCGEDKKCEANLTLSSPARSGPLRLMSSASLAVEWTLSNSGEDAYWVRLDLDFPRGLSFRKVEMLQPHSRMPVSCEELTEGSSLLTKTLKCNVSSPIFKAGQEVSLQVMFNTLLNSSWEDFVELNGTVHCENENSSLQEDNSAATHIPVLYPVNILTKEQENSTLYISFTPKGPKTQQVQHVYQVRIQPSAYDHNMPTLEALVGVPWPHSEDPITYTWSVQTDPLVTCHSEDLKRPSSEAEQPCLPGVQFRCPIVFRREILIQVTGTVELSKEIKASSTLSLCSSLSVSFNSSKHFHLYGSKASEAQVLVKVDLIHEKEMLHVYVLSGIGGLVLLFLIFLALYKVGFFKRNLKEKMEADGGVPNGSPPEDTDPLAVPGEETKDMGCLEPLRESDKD

CCN1C/C(=C/c2ccc(OC)c(O)c2)C(=O)/C(=C/c2ccc(OC)c(O)c2)C1
IC50 [1]: 0.67 µM (active) | EC50 [2]: 0.374 µM (inconclusive) | EC50 [3]: 0.38 µM (active) | CC50 [4]: > 3.67 µM (not active) | EC50 [5]: 1.78 µM (inconclusive) | EC50 [6]: 0.221 µM (active) | EC50 [7]: 4.84 µM (active) | EC50 [8]: 1.35 µM (inconclusive) | EC50 [9]: 1.25 µM (inconclusive) | EC50 [10]: 1.34 µM (active) | IC50 [11]: 8.47 µM (active) | IC50 [12]: > 80 µM (inactive) | EC50 [13]: 0.38 µM (active) | AC50 [14]: 4.09 µM (active) | IC50 [15]: 12.9 µM (inactive)

Cc1ccc2c(nc3s/c(=C\c4ccc(-c5ccccc5C(=O)O)o4)c(=O)n32)c1C
IC50 [16]: 3.88 µM (active) | IC50 [17]: > 100 µM (not active) | IC50 [18]: 22 µM (active) | EC50 [19]: 5.31 µM (active) | IC50 [20]: 5.71 µM (active) | IC50 [21]: 2.94 µM (active) | IC50 [22]: 2.2 µM (active) | EC50 [23]: 6.68 µM (active) | IC50 [24]: 35.3 µM (active)

COc1ccc(S(=O)(=O)N2CCCC2C(=O)Nc2ccc(C(C)=O)cc2)cc1 (configuration not stated)
EC50 [25]: 0.04 µM (active)

COc1ccc(-c2nnc(SCC(=O)c3ccc(O)c(O)c3)n2-c2ccc(Cl)cc2)cc1
IC50 [26]: 25 µM (active) | IC50 [27]: > 100 µM (inactive)

COc1cccc(CN2CCN(C(=S)Nc3ccc(S(N)(=O)=O)cc3)CC2)c1
IC50 [28]: > 100 µM (inactive) | IC50 [29]: > 100 µM (inactive)

COc1ccc(C(=O)Nc2cc(Cl)c(C)cc2C(=O)O)cc1
IC50 [30]: 10.3 µM (active)

COc1ccc2cc(/N=C/c3nc(-c4ccc(C)cc4)oc3O)cnc2c1
IC50 [31]: 10.3 µM (active) | IC50 [32]: > 50 µM (inactive)
